pIC50: −log10 of the molar value. Where “and” joins values, the source holds several entries; their conditions need not be identical. Equal entries are not always repeated. Where only a bound is given, the exact number is not on record here.

IC50 data for twelve compounds are collected here from patent US20170334899A1, “AMINO-SUBSTITUTED ISOTHIAZOLES” (Bayer Pharma Aktiengesellschaft, priority 2014, published 2017).

The test system of experiment [1] is human cervical tumor cell line HeLa (ATCC CCL-2). As to the kind of experiment: SAC-Formation - Nocodazole-Induced Assay. In kind it is cell-based. Particulars: Homo sapiens, HeLa, 24 h, HeLa cells, nocodazole 0.1 μg/ml together with test compound, decrease of mitotic cells (phospho-histone H3 Ser10). An outline of the steps: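 HeLa cells, plated overnight, were treated 24 h at 37 °C with nocodazole (0.1 μg/ml final) plus test compound (0.005–20 μM, 0.5% DMSO) added at the same time. After fixation, anti-phospho-histone H3 Ser10 and Hoechst staining gave the mitotic cell fraction by imaging. Values came from four-parameter Hill fits.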

Experiment [2] concerns the target T1, catalytic domain of human Bub1 (amino acids 704-1085) (Homo sapiens, UniProt O43683).
T1 construct: catalytic domain of human Bub1 (amino acids 704-1085); His6 (N); made in house; host or cells: insect cells (Hi5)
Kind of experiment: Bub1 kinase assay (TR-FRET). In kind it is biochemical. Particulars: 10 μM ATP, avg, read-out: Bub1 avg (IC50 [mol/l]). An outline of the steps:
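Readout is the 665/620 nm TR-FRET ratio from anti-phosphoserine antibody, Eu-labelled anti-mouse IgG and streptavidin-XL665, scaled between no-enzyme and uninhibited controls. Reaction: 1 μM biotinylated peptide, 10 μM ATP, 60 min, 22 °C, after 15 min compound preincubation with His6-Bub1 (704-1085, insect-expressed, ~200 ng/ml).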

T1 sequence (O43683 704-1085): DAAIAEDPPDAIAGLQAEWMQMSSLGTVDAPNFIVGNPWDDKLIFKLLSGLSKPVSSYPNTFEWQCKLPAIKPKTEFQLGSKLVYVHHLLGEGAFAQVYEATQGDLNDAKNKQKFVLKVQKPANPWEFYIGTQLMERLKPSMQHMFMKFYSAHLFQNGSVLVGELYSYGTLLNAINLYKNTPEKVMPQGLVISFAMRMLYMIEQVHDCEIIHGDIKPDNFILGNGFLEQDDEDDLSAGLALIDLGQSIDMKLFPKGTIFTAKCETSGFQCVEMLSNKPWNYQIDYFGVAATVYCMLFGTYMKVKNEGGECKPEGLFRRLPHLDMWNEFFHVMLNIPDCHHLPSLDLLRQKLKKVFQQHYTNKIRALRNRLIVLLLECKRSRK

On to `Cc1nsc(Nc2cncc(C(F)(F)F)n2)c1C(=O)Nc1ccc(C(=O)OC(C)(C)C)cc1` [Example 193, tert-butyl tert-butyl 4-{[(3-methyl-5-{[6-(trifluoromethyl)pyrazin-2-yl]amino}-1,2-thiazol-4-yl)carbonyl]amino}benzoate], for which the pIC50 in experiment [1] is 6.33; in experiment [2], less than 4.70.

For `Cc1nsc(Nc2cncc(C(F)(F)F)n2)c1C(=O)Nc1cccc(S(C)(=O)=O)c1` [Example 194, 3-methyl-N-[3-(methylsulfonyl)phenyl]-5-{[6-(trifluoromethyl)pyrazin-2-yl]amino}-1,2-thiazole-4-carboxamide], the pIC50 is 6.64 in experiment [1]; < 4.70 and 4.96 and 4.72 in experiment [2].

In the case of `Cc1nsc(Nc2cncc(C(F)(F)F)n2)c1C(=O)Nc1ccc(OCCN)nc1` [Example 196, N-[6-(2-aminoethoxy)pyridin-3-yl]-3-methyl-5-{[6-(trifluoromethyl)pyrazin-2-yl]amino}-1,2-thiazole-4-carboxamide], the pIC50 in experiment [1] was 5.89; in experiment [2], less than 4.70.

Consider `Cc1nsc(Nc2cnc(C(F)(F)F)cn2)c1C(=O)Nc1ccc(OCCN)nc1` [Example 197, N-[6-(2-aminoethoxy)pyridin-3-yl]-3-methyl-5-{[5-(trifluoromethyl)pyrazin-2-yl]amino}-1,2-thiazole-4-carboxamide], for which the pIC50 in experiment [1] is 6.00; in experiment [2], 5.04.

Regarding `Cc1nsc(Nc2cnc3ccccc3n2)c1C(=O)Nc1ccc(OCCC(=O)OC(C)(C)C)nc1` [Example 198, tert-butyl 3-{[5-({[3-methyl-5-(quinoxalin-2-ylamino)-1,2-thiazol-4-yl]carbonyl}amino)pyridin-2-yl]oxy}propanoate], the pIC50 in experiment [1] is 6.00; in experiment [2], less than 4.70.

Turning to `Cc1nsc(Nc2ccc(C#N)cn2)c1C(=O)Nc1ccc(OCCC(=O)OC(C)(C)C)nc1` [Example 199, tert-butyl 3-({5-[({5-[(5-cyanopyridin-2-yl)amino]-3-methyl-1,2-thiazol-4-yl}carbonyl)amino]pyridin-2-yl}oxy)propanoate], the pIC50 in experiment [1] is 6.02; in experiment [2], less than 4.70.

In the case of `Cc1nsc(Nc2cc(C#N)ccn2)c1C(=O)Nc1ccc(OCCC(=O)OC(C)(C)C)nc1` [Example 200, tert-butyl 3-({5-[({5-[(4-cyanopyridin-2-yl)amino]-3-methyl-1,2-thiazol-4-yl}carbonyl)amino]pyridin-2-yl}oxy)propanoate], the pIC50 is 6.34 in experiment [1] and less than 4.70 in experiment [2].

As for `Cc1nsc(Nc2cnc3ccccc3n2)c1C(=O)Nc1ccc(C(N)=O)c(F)c1` [Example 201, N-(4-carbamoyl-3-fluorophenyl)-3-methyl-5-(quinoxalin-2-ylamino)-1,2-thiazole-4-carboxamide], the pIC50 was 6.28 in experiment [1] and less than 4.70 in experiment [2].

For `Cc1nsc(Nc2cnc3ccccc3n2)c1C(=O)Nc1ccc(F)c(C(N)=O)c1` [Example 202, N-(3-carbamoyl-4-fluorophenyl)-3-methyl-5-(quinoxalin-2-ylamino)-1,2-thiazole-4-carboxamide], the pIC50 was 6.66 in experiment [1] and less than 4.70 in experiment [2].

For `Cc1nsc(Nc2ccc(C#N)cn2)c1C(=O)Nc1ccc(F)c(C(N)=O)c1` [Example 203, N-(3-carbamoyl-4-fluorophenyl)-5-[(5-cyanopyridin-2-yl)amino]-3-methyl-1,2-thiazole-4-carboxamide], the pIC50 in experiment [1] was 5.89; in experiment [2], less than 4.70.

With `Cc1nsc(Nc2cncc(C(F)(F)F)n2)c1C(=O)Nc1ccc(F)c(C(N)=O)c1` [Example 204, N-(3-carbamoyl-4-fluorophenyl)-3-methyl-5-{[6-(trifluoromethyl)pyrazin-2-yl]amino}-1,2-thiazole-4-carboxamide], the pIC50 is 6.31 in experiment [1]; < 4.70 and 4.80 in experiment [2].

`CC(=O)Nc1cc(NC(=O)c2c(C)nsc2Nc2cnccn2)ccc1F` [Example 205, N-(3-acetamido-4-fluorophenyl)-3-methyl-5-(pyrazin-2-ylamino)-1,2-thiazole-4-carboxamide]: the pIC50 was 5.22 in experiment [1] and less than 4.70 in experiment [2].
